Assay results taken from patent US9993001B2, “Herbicidal composition” (ISHIHARA SANGYO KAISHA, LTD., priority 2014, dated 2018).

Assays:
Format in all cases: in vivo
[1] = tested on: barnyardgrass (Echinochloa crus-galli L.); assay: Test Example 32: pot, soil treatment, metobromuron + chlorpropham; conditions: soil treatment, pot, 26th day after treatment, read-out: Growth inhibition rate of barnyardgrass (%) Measured value
Text: (§1) When the herbicidal activity in a case where two active ingredients are combined, is larger than the simple sum of the respective herbicidal activities of the two active ingredients (the expected activity), it is called a synergistic effect. The activity expected by the combination of two active ingredients can be calculated as follows (Colby S. R., “Weed”, vol. 15, p. 20-22, 1967). E=α+β−(α×β[…]) where α: growth inhibition rate when treated with x (g/ha) of herbicide X, • β: growth inhibition rate when treated with y (g/ha) of herbicide Y, • E: growth inhibition rate expected when treated with x (g/ha) of herbicide X and y (g/ha) of herbicide Y.
(§2) On the 19th day after treatment, the state of growth of barnyardgrass was visually observed and evaluated in accordance with the following standards. The growth inhibition rate (%) [measured value] and the growth inhibition rate (%) [calculated value] calculated by the Colby's method, are shown in Table 2.
(§3) Growth inhibition rate (%)=inhibition rate) (%) of 0 (equivalent to the non-treated area) to 100 (complete kill)
(§4) Soil was put into a 1/300,000 ha pot, and seeds of barnyardgrass (Echinochloa crus-galli L.) were sown. On the day after seeding, predetermined amounts of SC containing metobromuron as active ingredient (same as in Test Example 1) and EC containing chlorpropham as active ingredient (same as in Test Example 1) were diluted with water corresponding to 1,000 L per hectare and applied for soil treatment.
(§5) On the 26th day after treatment, the state of growth of barnyardgrass was visually observed and evaluated in the same manner as in Test Example 1.

[2] = tested on: common lambsquarters (Chenopodium album L.); assay: Test Example 20: pot, soil treatment, metobromuron + chlorpropham; conditions: soil treatment, pot, 26th day after treatment, read-out: Growth inhibition rate of common lambsquarters (%) Measured value
Text: as §1, §2, §3, §4, §5
The test was carried out in the same manner as in Test Example 18 except that barnyardgrass (Echinochloa crus-galli L.) was changed to common lambsquarters (Chenopodium album L.), to obtain the results as shown in Table 21.

[3] = tested on: annual bluegrass (Poa annua L.); assay: Test Example 19: pot, soil treatment, metobromuron + chlorpropham; conditions: 250 g/ha, soil treatment, pot, 26th day after treatment, read-out: Growth inhibition rate of annual bluegrass (%) Measured value
[4] = tested on: barnyardgrass (Echinochloa crus-galli L.); assay: Test Example 18: pot, soil treatment, metobromuron + chlorpropham; conditions: 500 g/ha, soil treatment, pot, 26th day after treatment, read-out: Growth inhibition rate of barnyardgrass (%) Measured value
Text: as §1, §2, §3
(§6) Soil was put into a 1/300,000 ha pot, and seeds of barnyardgrass (Echinochloa crus-galli L.) were sown. […]
as §5

[5] = tested on: giant foxtail (Setaria faberi Herrm.); assay: Test Example 16: pot, soil treatment, metobromuron + chlorpropham; conditions: soil treatment, pot, 21st day after treatment, read-out: Growth inhibition rate of giant foxtail (%) Measured value
Text: as §1, §2, §3, §4
(§7) On the 21st day after treatment, the state of growth of barnyardgrass was visually observed and evaluated in the same manner as in Test Example 1.
The test was carried out in the same manner as in Test Example 15 except that barnyardgrass (Echinochloa crus-galli L.) was changed to giant foxtail (Setaria faberi Herrm.), to obtain the results as shown in Table 17.

[6] = tested on: barnyardgrass (Echinochloa crus-qalli L.); assay: Test Example 1: soybean field, soil treatment, metobromuron + chlorpropham; conditions: 916 g/ha, soil treatment, soybean field, 19th day after treatment, read-out: Growth inhibition rate of barnyardgrass (%) Measured value
Text: When the herbicidal activity in a case where two active ingredients are combined, is larger than the simple sum of the respective herbicidal activities of the two active ingredients (the expected activity), it is called a synergistic effect. The activity expected by the combination of two active ingredients can be calculated as follows (Colby S. R., “Weed”, vol. 15, p. 20-22, 1967). E=α+β−(α×β[…]) where α: growth inhibition rate when treated with x (g/ha) of herbicide X, • β: growth inhibition rate when treated with y (g/ha) of herbicide Y, • E: growth inhibition rate expected when treated with x (g/ha) of herbicide X and y (g/ha) of herbicide Y. […]
as §2, with “2. […]” for “2.”

[7] = tested on: barnyardgrass (Echinochloa crus-galli L.); assay: Test Example 15: pot, soil treatment, metobromuron + chlorpropham; conditions: 750 g/ha, soil treatment, pot, 21st day after treatment, read-out: Growth inhibition rate of barnyardgrass (%) Measured value
Text: as §1, §2, §3, §6, §7

[8] = tested on: black nightshade (Solanum nigrum L.); assay: Test Example 17: pot, soil treatment, metobromuron + chlorpropham; conditions: soil treatment, pot, 21st day after treatment, read-out: Growth inhibition rate of black nightshade (%) Measured value
Text: as §1, §2, §3, §4, §7
The test was carried out in the same manner as in Test Example 15 except that barnyardgrass (Echinochloa crus-galli L.) was changed to black nightshade (Solanum nigrum L.), to obtain the results as shown in Table 18.

[9] = tested on: barnyardgrass (Echinochloa crus-qalli L.); assay: Test Example 5: adzuki bean field, soil treatment, metobromuron + fluazifop-P-butyl; conditions: 700 g/ha; soil treatment, adzuki bean field; 39th day after treatment
Text: as §1, §2
(§8) Growth inhibition rate (%)=inhibition rate) (%) of 0 (equivalent to the non-treated area) to 100 (complete kill) […]
On the 39th day after treatment, the state of growth of barnyardgrass (Echinochloa crus-qalli L.) which occurred naturally, was visually observed and evaluated in the same manner as in Test Example 1.

[10] = tested on: black nightshade (Solanum nigrum L.); assay: Test Example 23: pot, soil treatment, metobromuron + fluazifop-P-butyl; conditions: 131.25 g/ha; soil treatment, pot; 20th day after treatment
Text: as §1, §2, §3
Soil was put into a 1/300,000 ha pot, and seeds of black nightshade (Solanum nigrum L.) were sown. […]
On the 20th day after treatment, the state of growth of black nightshade was visually observed and evaluated in the same manner as in Test Example 1.

[11] = tested on: Oriental lady's thumb (Persicaria longiseta); assay: Test Example 7: common bean field, soil treatment, metobromuron + trifluralin; conditions: 1335 g/ha, soil treatment, common bean field, 49th day after treatment, read-out: Growth inhibition rate of Oriental lady's thumb (%) Measured value
Text: as §1, §2, §8
On the 49th day after treatment, the state of growth of Oriental lady's thumb (Persicaria longiseta) which occurred naturally, was visually observed and evaluated in the same manner as in Test Example 1.

[12] = tested on: barnyardgrass (Echinochloa crus-qalli L.); assay: Test Example 4: soybean field, soil treatment, metobromuron + trifluralin; conditions: 890 g/ha, soil treatment, soybean field, 50th day after treatment, read-out: Growth inhibition rate of barnyardgrass (%) Measured value
Text: as §1, §2, §8
On the 50th day after treatment, the state of growth of barnyardgrass (Echinochloa crus-qalli L.) which occurred naturally, was visually observed and evaluated in the same manner as in Test Example 1.

[13] = tested on: common lambsquarters (Chenopodium album L.); assay: Test Example 24: pot, soil treatment, metobromuron + trifluralin; conditions: soil treatment, pot, 21st day after treatment, read-out: Growth inhibition rate of common lambsquarters (%) Measured value
Text: as §1, §2, §3
Soil was put into a 1/300,000 ha pot, and seeds of common lambsquarters (Chenopodium album L.) were sown. On the day after seeding, predetermined amounts of SC containing metobromuron as active ingredient (same as in Test Example 1) and EC containing trifluralin as active ingredient (same as in Test Example 4) were diluted with water corresponding to 1,000 L per hectare and applied for soil treatment.
On the 21st day after treatment, the state of growth of common lambsquarters was visually observed and evaluated in the same manner as in Test Example 1.

[14] = tested on: common chickweed (Stellaria media L.); assay: Test Example 25: pot, soil treatment, metobromuron + trifluralin; conditions: 445 g/ha, soil treatment, pot, 21st day after treatment, read-out: Growth inhibition rate of common chickweed (%) Measured value

Compound: CC(C)OC(=O)Nc1cccc(Cl)c1 [Chlorpropham, isopropyl 3-chlorocarbanilate]
- inhibition at 125 g/ha ([1]; 125 g/ha): 10%
- inhibition at 250 g/ha ([1]; 250 g/ha): 0%
- inhibition at 500 g/ha ([1]; 500 g/ha): 70%
- inhibition at 125 g/ha ([2]; 125 g/ha): 20%
- inhibition at 250 g/ha ([2]; 250 g/ha): 30%
- inhibition at 1000 g/ha ([2]; 1000 g/ha): 50%
- inhibition at 250 g/ha [3]: 10%
- inhibition at 500 g/ha [4]: 70%
- inhibition at 750 g/ha ([5]; 750 g/ha): 0%
- inhibition at 1000 g/ha ([5]; 1000 g/ha): 0%
- inhibition at 916 g/ha [6]: 8%
- inhibition at 750 g/ha [7]: 0%
- inhibition at 750 g/ha ([8]; 750 g/ha): 0%
- inhibition at 1000 g/ha ([8]; 1000 g/ha): 0%

Compound: CCCCOC(=O)[C@@H](C)Oc1ccc(Oc2ccc(C(F)(F)F)cn2)cc1 [Fluazifop-P-butyl, butyl (R)-2-[4-[5-(trifluoromethyl)-2-pyridyloxy]phenoxy] propionate]
- Growth inhibition rate of barnyardgrass (%) Measured value [9]: 55%
- Growth inhibition rate of black nightshade (%) Measured value [10]: 25%

Compound: CCCN(CCC)c1c([N+](=O)[O-])cc(C(F)(F)F)cc1[N+](=O)[O-] [Trifluralin, α,α,α-trifluoro-2,6-dinitro-N,N-dipropyl-p-toluidine]
- inhibition at 1335 g/ha [11]: 40%
- inhibition at 890 g/ha [12]: 20%
- inhibition at 296.7 g/ha ([13]; 296.7 g/ha): 20%
- inhibition at 445 g/ha ([13]; 445 g/ha): 15%
- inhibition at 667.5 g/ha ([13]; 667.5 g/ha): 48%
- inhibition at 445 g/ha [14]: 35%
